Data published in patent US10160948B2, “Pluripotent embryonic-like stem cells, compositions, methods and uses thereof” (ABT HOLDING COMPANY, priority 1999, dated 2018).
Marks after values point to notes of the source that are not given here.

Columns and labels:
Swiss-3T3 cells = assay: Dexamethasone treatment of Swiss-3T3 cells, assay of phenotypes; assay type: cell-based, mouse
Procedure: Frozen 3T3 cells were then thawed, cell viability was determined using 0.4% Typan Blue in PBS with a hemocytometer (Denhardt et al., 1991; Domin and Rozengurt, 1993), and the cells were plated in 24 well plates (Corning Glassworks, Corning, N.Y.), precoated with 1% gelatin at a density of 5000 cells/well. Cells were cultured in EMEM containing 10% horse serum and varying concentrations of dexamethasone (Sigma, Salom, Mo.). Four wells served as controls and received medium without dexamethasone. Four wells each received medium containing 10^−10 M, 10^−9 M, 10^−8 M, 10^−7 M, 10^−6 M dexamethasone. The medium was changed every other day and cultures were examined using phase contrast microscopy for the appearance of different phenotypes.
• Bone—The presence of calcified tissue was assayed by Von Kossa's staining of calcium phosphate as described by Humason. Briefly, the culture medium was removed, and the plates were rinsed twice with the DPBS. The cells were fixed with 0.5 ml of 10% formalin for 3-5 minutes, then rinsed four times with distilled water. One half of a milliliter of freshly prepared 2% silver nitrate solution was then added, and the cells were incubated in the dark for 10 minutes. After incubation, the silver nitrate solution was removed and the cells were rinsed five times with distilled water. Approximately 0.5 ml of distilled water was left on each well. The plate was exposed to bright light for 15 minutes against a white background to reflect light. The plates were again rinsed five times with distilled water and quickly dehydrated with 100% ethanol. The plates were made permanent with glycerin jelly. Confirmation of the presence of calcium phosphate was performed by pretreating selected cultures with 1% weight/volume [ethylene bis(oxyethylenenitrilo)]-tetraacetic acid, a specific calcium chelator, in Ca, MG-free buffer for 1 hour before incubation in the silver nitrate solution. • Muscle—The cells were stained with the MF-20 antibody to sarcomeric myosin (Hybridoma Bank, Ames Iowa) by means of a modified procedure of Young et. al., 1992b. […]

progenitor stem cells = assay: Proliferation and phenotypic responses to bioactive factors: progenitor cells; assay type: cell-based; details: for Phenotypic Expression, Progenitor: presence and approximate distribution of differentiated phenotypes within the culture wells
Excerpt: (§1) Having access to mixed populations of progenitor stem cells, progenitor stem cell clones, and pluripotent stem cell clones permits one to address the influence of various bioactive factors (e.g. recombinant growth factors, purified compounds, and novel inductive factors) on the growth characteristics and phenotypic expression of these stem cells.
(§2) Cryopreserved cells are thawed and plated in MSC-1 at 5, 10, or 20×10^3 cells per well of gelatinized 24-well plates following the standard protocol. Twenty-four hours after initial plating the medium is changed to testing medium (TM) 1 to 6 (TM-1, TM-2, TM-3, TM-4, TM-5, or TM-6). TM-1 to TM-4 consist of Ultraculture (cat. no. 12-725B, lot. nos. OMO455 [TM-1], 1M1724 [TM-2], 2M0420 [TM-3], or 2M0274 [TM-4], Bio-Whittaker, Walkersville, Md.), medium (EMEM or Opti-MEM 0.01 mM β-mercaptoethanol), and 1% (v/v) antibiotic-antimycotic, pH 7.4. TM-5 consists of 98% (v/v) medium, 1% (v/v) HS, and 1% (v/v) antibiotic-antimycotic, pH 7.4. TM-6 consists of 98.5% (v/v) medium, 0.5% (v/v) HS, and 1% (v/v) antibiotic-antimycotic, pH 7.4. […] Four testing media (TM#'s 1-4), each containing various concentrations of Ultraculture, were used as. […] The four Ultraculture-based testing media were: TM-1=15% (v/v) Ultraculture (Lot no. OMO455): 84% (v/v) medium: 1% (v/v) antibiotics; TM-2=15% (v/v) Ultraculture (Lot no. 1M1724): 84% (v/v) medium: 1% (v/v) antibiotics; TM-3=50% (v/v) Ultraculture (Lot no. 2M0420): 49% (v/v) medium: 1% (v/v) antibiotics; and TM-4=75% (v/v) Ultraculture (Lot no. 2M0274): 24% (v/v) medium: 1% (v/v) antibiotics. Pre-incubation for 24 hr in testing medium alone is used to wash out any potential synergistic components in the MSC-1 medium. Twenty-four hours later the testing medium is changed to one of the following. For controls, TM-1 to TM-6 alone is used. To identify clones of progenitor cells, the medium is replaced with TM-1 to TM-6 containing 2 μg/ml insulin (Sigma), an agent that accelerates the appearance of phenotypic expression markers in progenitor cells (TABLE 12). To identify clones of pluripotent cells, the medium is replaced with TM-1 to TM-6 containing 10^−10 to 10^−6 M dexamethasone (Sigma), a general non-specific lineage-inductive agent (TABLE 13). Control and treated cultures are propagated for an additional 30-45 days with medium changes every other day. Four culture wells are used per concentration per experiment. During the 0-45 day time period the cultures are examined subjectively for changes in morphological characteristics on a daily basis. Alterations in phenotypic expression are correlated with the days of treatment and associated insulin or dexamethasone concentrations. The experiment is then repeated utilizing these parameters to confirm objectively the phenotypic expression markers using established histological, functional/histochemical, ELICA/flow cytometry, and molecular assays (TABLE 13).

pluripotent stem cells = assay: Proliferation and phenotypic responses to bioactive factors: pluripotent cells; assay type: cell-based; details: for Phenotypic Expression, Pluripotent: presence and approximate distribution of differentiated phenotypes within the culture wells
Excerpt: as §1, §2

[1] = tested on: cells isolated from granulation tissue; assay: Dexamethasone treatment of cells from granulation tissue (wound chambers), assays for phenotypes; assay type: cell-based, rat
cardiac myocytes = assay: Beat rate of binucleated beating cells in dexamethasone-treated Swiss-3T3 cultures exposed to isoproterenol and propanolol; assay type: cell-based, mouse
Excerpt: The wells were then washed six times with EMEM+10% horse serum and viewed on a Nikon Diaphot with fluorescent attachment. • Cardiac muscle—Cardiac myocytes were identified based on their large binucleated nuclei and their reactions to inotropic and chronotropic agents.

Compound	dexamethasone concentration at which binucleated beating cells appeared (Swiss-3T3 cells; 4 weeks in culture)	dexamethasone concentration at which myotubes appeared (Swiss-3T3 cells; 14 days)	dexamethasone concentration at which most adipocytes appeared (Swiss-3T3 cells; after two weeks treatment)	Proliferation, Progenitor: number of times the agent increased the DNA content per well versus its respective control (progenitor stem cells)	Proliferation, Pluripotent: number of times the agent increased the DNA content per well versus its respective control (pluripotent stem cells)	dexamethasone concentrations at which cartilage nodules appeared [1]	dexamethasone concentrations at which fibroblasts appeared ([1]; after 3 weeks)	dexamethasone concentrations at which adipocytes appeared ([1]; first appeared at 2 weeks)	beat rate (cardiac myocytes; cells treated with 10^−6 M isoproterenol)	Beats per minute (cardiac myocytes; n = 5, 10−6M)	Phenotypic Expression, Progenitor (progenitor stem cells)	activity on pluripotent and progenitor stem cells, in words (pluripotent stem cells)	Phenotypic Expression, Pluripotent (pluripotent stem cells)
C[C@@H]1C[C@H]2[C@@H]3CCC4=CC(=O)C=C[C@]4(C)[C@@]3(F)[C@@H](O)C[C@]2(C)[C@@]1(O)C(=O)CO [Dex, dexamethasone]	10^−7-10^−6 M	10^−9-10^−6 M	10^−8-10^−6 M	−	−	10^−9-10^−6 M	10^−9-10^−7 M	10^−8-10^−6 M					
CC(C)NCC(O)c1ccc(O)c(O)c1 (stereo not shown) [Isoproteronol, isoproterenol]									85 beats per minute	87.4± * Beats per minute			
IGF-I: insulin-like growth factor-I				1 times	1 times						All+++	stimulated lineage-progression in all progenitor cells, but had no measurable effect on pluripotent cells	0
IGF-II: insulin-like growth factor-II				1 times	1 times						All+++	stimulated lineage-progression in all progenitor cells, but had no measurable effect on pluripotent cells	0
PDGF-AA: Platelet-derived growth factor-AA				16 times	16^b times						All+	stimulated proliferation in pluripotent cells and in all lineages of progenitor cells	0
PDGF-BB: platelet-derived growth factor-BB				19 times	19 times						All+	stimulated proliferation in pluripotent cells and in all lineages of progenitor cells	0
TGF-β				−	−^c						F++	stimulated lineage-progression in fibrogenic progenitor cells, inhibited lineage-progression in all other progenitor cells, and had no effect on pluripotent cells	0
b-FGF: Basic-fibroblast growth factor				1 times	1 times						F++	stimulated lineage-progression in fibrogenic progenitor cells, inhibited lineage-progression in all other progenitor cells, and had no effect on pluripotent cells	0
